Assay results taken from the kinase profiling compilation of Christmann-Franck et al. (2016).

Experiments:
Test in all cases: KINOMEscan competition binding
Conditions in all cases: compound 10.0 µM
NIM1 (human) = NIM1 (human) (UniProt Q8IY84)
EPHA2 (human) = EPHA2 (human) (UniProt P29317)
[1] = test system: PIK3CA (human), P42336 [Q546K]
CSNK1A1L (human) = CSNK1A1L (human) (UniProt Q8N752)
EPHA8 (human) = EPHA8 (human) (UniProt P29322)
PIK3CG (human) = PIK3CG (human) (UniProt P48736)
[2] = test system: MET (human), P08581 [M1250T]
CDK17 (human) = CDK17 (human) (UniProt Q00537)
[3] = test system: PIK3CA (human), P42336 [E545A]
Sequence of PIK3CA (human), P42336 [E545A] (P42336 whole entry E545A, looked up): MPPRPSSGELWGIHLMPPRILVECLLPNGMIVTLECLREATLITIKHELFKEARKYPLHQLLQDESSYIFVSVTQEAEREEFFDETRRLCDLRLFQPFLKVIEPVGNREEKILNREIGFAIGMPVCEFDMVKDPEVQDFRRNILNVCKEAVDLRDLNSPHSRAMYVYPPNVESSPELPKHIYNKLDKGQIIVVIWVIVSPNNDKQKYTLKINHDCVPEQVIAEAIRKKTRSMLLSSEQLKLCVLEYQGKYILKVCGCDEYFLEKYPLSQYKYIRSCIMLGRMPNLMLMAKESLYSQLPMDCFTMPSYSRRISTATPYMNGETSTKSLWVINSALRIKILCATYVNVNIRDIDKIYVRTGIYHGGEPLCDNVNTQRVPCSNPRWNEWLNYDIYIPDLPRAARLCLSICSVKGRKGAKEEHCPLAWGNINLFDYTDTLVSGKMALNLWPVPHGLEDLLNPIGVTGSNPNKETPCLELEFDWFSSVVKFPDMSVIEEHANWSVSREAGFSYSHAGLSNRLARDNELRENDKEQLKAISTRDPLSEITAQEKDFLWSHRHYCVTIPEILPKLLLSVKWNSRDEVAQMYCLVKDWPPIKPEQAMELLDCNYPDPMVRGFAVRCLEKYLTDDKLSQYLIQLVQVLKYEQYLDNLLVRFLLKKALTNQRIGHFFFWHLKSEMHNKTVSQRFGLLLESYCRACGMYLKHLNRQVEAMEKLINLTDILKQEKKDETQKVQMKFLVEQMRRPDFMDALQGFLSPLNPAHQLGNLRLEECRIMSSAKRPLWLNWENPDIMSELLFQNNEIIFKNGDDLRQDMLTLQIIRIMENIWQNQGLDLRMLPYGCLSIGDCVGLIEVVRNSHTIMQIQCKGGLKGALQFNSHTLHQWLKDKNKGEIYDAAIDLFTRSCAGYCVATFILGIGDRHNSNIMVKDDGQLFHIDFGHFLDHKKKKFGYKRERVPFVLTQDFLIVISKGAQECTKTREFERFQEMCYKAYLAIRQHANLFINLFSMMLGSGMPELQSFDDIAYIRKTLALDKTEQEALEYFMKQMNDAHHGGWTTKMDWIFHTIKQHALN

ANKK1 (human) = ANKK1 (human) (UniProt Q8NFD2)
CSNK1G2 (human) = CSNK1G2 (human) (UniProt P78368)
PAK6 (human) = PAK6 (human) (UniProt Q9NQU5)
CAMK2A (human) = CAMK2A (human) (UniProt Q9UQM7)
RPS6KA4 KD1 (human) = RPS6KA4 KD1 (human) (UniProt O75676)
DCLK2 (human) = DCLK2 (human) (UniProt Q8N568)
Sequence of DCLK2 (human) (Q8N568 whole entry, looked up): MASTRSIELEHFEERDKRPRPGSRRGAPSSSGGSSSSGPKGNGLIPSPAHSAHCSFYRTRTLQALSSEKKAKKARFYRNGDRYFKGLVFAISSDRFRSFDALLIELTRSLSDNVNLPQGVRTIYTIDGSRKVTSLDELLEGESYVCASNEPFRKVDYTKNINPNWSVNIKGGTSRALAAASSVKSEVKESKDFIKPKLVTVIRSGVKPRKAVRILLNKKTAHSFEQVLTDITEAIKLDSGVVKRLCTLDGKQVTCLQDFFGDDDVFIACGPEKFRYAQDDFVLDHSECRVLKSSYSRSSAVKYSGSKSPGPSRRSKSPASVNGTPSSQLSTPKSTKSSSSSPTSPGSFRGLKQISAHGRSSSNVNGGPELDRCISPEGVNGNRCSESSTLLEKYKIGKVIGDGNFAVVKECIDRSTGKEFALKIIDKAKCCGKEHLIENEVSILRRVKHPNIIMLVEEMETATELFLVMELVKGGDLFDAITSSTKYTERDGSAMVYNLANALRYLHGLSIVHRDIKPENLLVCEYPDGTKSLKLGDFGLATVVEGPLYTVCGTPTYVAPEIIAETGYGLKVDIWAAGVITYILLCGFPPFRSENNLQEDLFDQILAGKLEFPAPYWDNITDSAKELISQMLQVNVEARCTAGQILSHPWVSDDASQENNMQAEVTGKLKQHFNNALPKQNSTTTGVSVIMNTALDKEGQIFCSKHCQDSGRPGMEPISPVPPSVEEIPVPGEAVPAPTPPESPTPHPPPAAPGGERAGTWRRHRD

INSR (human) = INSR (human) (UniProt P06213)
ACVR1B (human) = ACVR1B (human) (UniProt P36896)
ZAP70 (human) = ZAP70 (human) (UniProt P43403)
KIT (human) = KIT (human) (UniProt P10721)
Sequence of KIT (human) (P10721 whole entry, looked up): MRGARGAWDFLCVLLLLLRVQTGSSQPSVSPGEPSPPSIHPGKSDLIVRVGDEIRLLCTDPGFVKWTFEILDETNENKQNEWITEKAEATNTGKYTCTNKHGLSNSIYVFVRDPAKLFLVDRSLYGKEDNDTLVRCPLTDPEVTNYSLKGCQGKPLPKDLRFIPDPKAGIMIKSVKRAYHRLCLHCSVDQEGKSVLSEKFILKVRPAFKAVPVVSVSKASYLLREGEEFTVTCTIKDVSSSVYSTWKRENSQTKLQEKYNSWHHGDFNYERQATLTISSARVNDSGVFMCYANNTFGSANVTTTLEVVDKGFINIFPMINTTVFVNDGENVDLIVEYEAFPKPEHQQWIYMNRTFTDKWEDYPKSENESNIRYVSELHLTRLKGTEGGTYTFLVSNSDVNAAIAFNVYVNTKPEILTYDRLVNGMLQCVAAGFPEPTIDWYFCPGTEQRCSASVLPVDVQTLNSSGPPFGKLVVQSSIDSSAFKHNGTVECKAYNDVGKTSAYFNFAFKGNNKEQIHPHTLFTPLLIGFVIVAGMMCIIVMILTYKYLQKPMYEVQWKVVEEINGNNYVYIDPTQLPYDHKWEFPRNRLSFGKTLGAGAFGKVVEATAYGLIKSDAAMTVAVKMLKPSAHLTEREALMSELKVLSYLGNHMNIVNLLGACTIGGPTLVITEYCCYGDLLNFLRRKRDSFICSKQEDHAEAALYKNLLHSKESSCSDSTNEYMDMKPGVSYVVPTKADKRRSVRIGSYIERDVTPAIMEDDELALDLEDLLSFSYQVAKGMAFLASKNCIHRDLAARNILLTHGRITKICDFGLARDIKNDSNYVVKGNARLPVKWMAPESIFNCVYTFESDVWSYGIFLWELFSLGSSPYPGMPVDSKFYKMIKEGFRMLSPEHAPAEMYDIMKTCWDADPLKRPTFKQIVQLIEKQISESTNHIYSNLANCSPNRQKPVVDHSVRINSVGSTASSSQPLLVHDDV

RPS6KA2 KD2 (human) = RPS6KA2 KD2 (human) (UniProt Q15349)
BTK (human) = BTK (human) (UniProt Q06187)
BRAF (human) = BRAF (human) (UniProt P15056)
PAK2 (human) = PAK2 (human) (UniProt Q13177)
[4] = test system: PIK3CA (human), P42336 [E542K]
Sequence of PIK3CA (human), P42336 [E542K] (P42336 whole entry E542K, looked up): as the sequence (P42336 whole entry E545A, looked up) above, with E542K, A545E counted along it

[5] = test system: RET (human), P07949 [V804L]
HCK (human) = HCK (human) (UniProt P08631)
MYLK3 (human) = MYLK3 (human) (UniProt Q32MK0)
Sequence of MYLK3 (human) (Q32MK0 whole entry, looked up): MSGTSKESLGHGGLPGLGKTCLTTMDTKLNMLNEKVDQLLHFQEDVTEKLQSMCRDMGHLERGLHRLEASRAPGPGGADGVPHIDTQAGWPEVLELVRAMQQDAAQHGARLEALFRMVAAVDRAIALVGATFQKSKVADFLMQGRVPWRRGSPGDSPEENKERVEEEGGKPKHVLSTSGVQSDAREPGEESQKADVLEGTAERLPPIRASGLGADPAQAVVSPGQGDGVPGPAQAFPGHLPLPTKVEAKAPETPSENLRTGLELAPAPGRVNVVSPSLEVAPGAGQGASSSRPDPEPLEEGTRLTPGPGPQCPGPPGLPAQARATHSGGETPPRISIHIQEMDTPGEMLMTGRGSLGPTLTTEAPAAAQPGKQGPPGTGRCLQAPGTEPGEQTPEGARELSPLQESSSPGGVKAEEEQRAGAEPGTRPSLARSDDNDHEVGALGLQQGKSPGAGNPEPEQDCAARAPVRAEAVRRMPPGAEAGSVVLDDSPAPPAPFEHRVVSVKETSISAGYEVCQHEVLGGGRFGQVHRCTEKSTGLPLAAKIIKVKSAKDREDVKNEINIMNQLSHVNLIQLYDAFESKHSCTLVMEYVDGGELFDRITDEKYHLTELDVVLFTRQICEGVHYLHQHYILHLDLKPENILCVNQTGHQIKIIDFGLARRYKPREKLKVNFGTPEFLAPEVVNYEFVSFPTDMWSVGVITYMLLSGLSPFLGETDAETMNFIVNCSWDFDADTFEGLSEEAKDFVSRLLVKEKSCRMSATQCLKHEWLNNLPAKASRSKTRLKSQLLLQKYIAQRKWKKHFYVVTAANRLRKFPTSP

MAP3K13 (human) = MAP3K13 (human) (UniProt O43283)
CDK19 (human) = CDK19 (human) (UniProt Q9BWU1)
MAP3K1 (human) = MAP3K1 (human) (UniProt Q13233)
NEK9 (human) = NEK9 (human) (UniProt Q8TD19)
Sequence of NEK9 (human) (Q8TD19 whole entry, looked up): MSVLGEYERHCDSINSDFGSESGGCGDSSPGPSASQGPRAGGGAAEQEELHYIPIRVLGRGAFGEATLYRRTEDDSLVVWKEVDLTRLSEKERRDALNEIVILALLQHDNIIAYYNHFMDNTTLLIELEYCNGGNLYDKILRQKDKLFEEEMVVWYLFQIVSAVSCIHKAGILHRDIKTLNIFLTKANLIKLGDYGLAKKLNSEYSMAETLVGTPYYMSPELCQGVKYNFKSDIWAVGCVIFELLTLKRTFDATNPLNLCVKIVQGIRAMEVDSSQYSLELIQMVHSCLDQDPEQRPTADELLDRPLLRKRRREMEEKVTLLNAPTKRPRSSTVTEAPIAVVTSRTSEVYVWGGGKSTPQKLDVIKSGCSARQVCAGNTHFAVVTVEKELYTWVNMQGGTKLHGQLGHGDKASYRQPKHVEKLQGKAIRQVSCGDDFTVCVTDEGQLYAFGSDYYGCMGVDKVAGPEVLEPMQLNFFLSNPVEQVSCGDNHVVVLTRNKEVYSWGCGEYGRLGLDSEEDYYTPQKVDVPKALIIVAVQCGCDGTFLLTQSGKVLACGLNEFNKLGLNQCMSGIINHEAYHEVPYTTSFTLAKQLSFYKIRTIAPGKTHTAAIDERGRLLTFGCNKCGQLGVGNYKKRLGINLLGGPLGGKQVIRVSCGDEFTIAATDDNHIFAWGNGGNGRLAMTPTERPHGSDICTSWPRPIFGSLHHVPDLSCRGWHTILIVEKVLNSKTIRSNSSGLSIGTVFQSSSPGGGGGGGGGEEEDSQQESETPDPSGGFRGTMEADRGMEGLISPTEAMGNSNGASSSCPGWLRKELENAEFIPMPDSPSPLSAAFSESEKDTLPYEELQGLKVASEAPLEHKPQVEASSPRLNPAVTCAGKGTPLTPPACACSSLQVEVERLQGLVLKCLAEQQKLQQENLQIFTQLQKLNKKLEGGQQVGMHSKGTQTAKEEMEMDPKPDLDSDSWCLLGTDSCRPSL

ALK (human) = ALK (human) (UniProt Q9UM73)
PRKCD (human) = PRKCD (human) (UniProt Q05655)
STK32C (human) = STK32C (human) (UniProt Q86UX6)
TEK (human) = TEK (human) (UniProt Q02763)
DYRK1B (human) = DYRK1B (human) (UniProt Q9Y463)
MYLK (human) = MYLK (human) (UniProt Q15746)
[6] = target: JAK2 JH1 catalytic (human) (UniProt O60674)
MAPK12 (human) = MAPK12 (human) (UniProt P53778)
Sequence of MAPK12 (human) (P53778 whole entry, looked up): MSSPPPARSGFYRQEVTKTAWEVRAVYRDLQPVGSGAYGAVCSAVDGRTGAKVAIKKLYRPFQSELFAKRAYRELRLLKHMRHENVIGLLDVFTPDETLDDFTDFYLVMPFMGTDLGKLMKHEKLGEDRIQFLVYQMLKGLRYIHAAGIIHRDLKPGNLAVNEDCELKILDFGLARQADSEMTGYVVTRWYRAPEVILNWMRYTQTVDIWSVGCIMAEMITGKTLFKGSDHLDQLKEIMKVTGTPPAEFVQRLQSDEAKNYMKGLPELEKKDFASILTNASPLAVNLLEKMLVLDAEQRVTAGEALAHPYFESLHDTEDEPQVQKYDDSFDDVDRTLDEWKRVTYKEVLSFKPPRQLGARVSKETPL

PDPK1 (human) = PDPK1 (human) (UniProt O15530)
PIM1 (human) = PIM1 (human) (UniProt P11309)

Sequence of PIK3CA (human), P42336 [Q546K] (P42336 whole entry Q546K, looked up): as the sequence (P42336 whole entry E545A, looked up) above, with A545E, Q546K counted along it

O=C1Nc2cc(Br)ccc2/C1=C1/Nc2ccccc2/C1=N\O
kinase still bound, per cent of control (NIM1 (human)): 85%
kinase still bound, per cent of control (EPHA2 (human)): 35%
kinase still bound, per cent of control [1]: 100%
kinase still bound, per cent of control (CSNK1A1L (human)): 36%
kinase still bound, per cent of control (EPHA8 (human)): 40%
kinase still bound, per cent of control (PIK3CG (human)): 82%
kinase still bound, per cent of control [2]: 87%
kinase still bound, per cent of control (CDK17 (human)): 12%
kinase still bound, per cent of control [3]: 100%
kinase still bound, per cent of control (ANKK1 (human)): 4.8%
kinase still bound, per cent of control (CSNK1G2 (human)): 78%
kinase still bound, per cent of control (PAK6 (human)): 24%
kinase still bound, per cent of control (CAMK2A (human)): 0.8%
kinase still bound, per cent of control (RPS6KA4 KD1 (human)): 3.2%
kinase still bound, per cent of control (DCLK2 (human)): 100%
kinase still bound, per cent of control (INSR (human)): 72%
kinase still bound, per cent of control (ACVR1B (human)): 77%
kinase still bound, per cent of control (ZAP70 (human)): 90%
kinase still bound, per cent of control (KIT (human)): 0.05%
kinase still bound, per cent of control (RPS6KA2 KD2 (human)): 79%
kinase still bound, per cent of control (BTK (human)): 38%
kinase still bound, per cent of control (BRAF (human)): 89%
kinase still bound, per cent of control (PAK2 (human)): 40%
kinase still bound, per cent of control [4]: 100%
kinase still bound, per cent of control [5]: 0%
kinase still bound, per cent of control (HCK (human)): 1.2%
kinase still bound, per cent of control (MYLK3 (human)): 0.4%
kinase still bound, per cent of control (MAP3K13 (human)): 54%
kinase still bound, per cent of control (CDK19 (human)): 100%
kinase still bound, per cent of control (MAP3K1 (human)): 100%
kinase still bound, per cent of control (NEK9 (human)): 98%
kinase still bound, per cent of control (ALK (human)): 44%
kinase still bound, per cent of control (PRKCD (human)): 100%
kinase still bound, per cent of control (STK32C (human)): 100%
kinase still bound, per cent of control (TEK (human)): 78%
kinase still bound, per cent of control (DYRK1B (human)): 13%
kinase still bound, per cent of control (MYLK (human)): 6.5%
kinase still bound, per cent of control [6]: 25%
kinase still bound, per cent of control (MAPK12 (human)): 55%
kinase still bound, per cent of control (PDPK1 (human)): 20%
kinase still bound, per cent of control (PIM1 (human)): 62%

Cc1cnc(-c2cnc(NCCNc3ccc(C#N)cn3)nc2-c2ccc(Cl)cc2Cl)[nH]1
kinase still bound, per cent of control (NIM1 (human)): 100%
kinase still bound, per cent of control (EPHA2 (human)): 96%
kinase still bound, per cent of control [1]: 100%
kinase still bound, per cent of control (CSNK1A1L (human)): 100%
kinase still bound, per cent of control (EPHA8 (human)): 100%
kinase still bound, per cent of control (PIK3CG (human)): 14%
kinase still bound, per cent of control [2]: 92%
kinase still bound, per cent of control (CDK17 (human)): 100%
kinase still bound, per cent of control [3]: 100%
kinase still bound, per cent of control (ANKK1 (human)): 100%
kinase still bound, per cent of control (CSNK1G2 (human)): 59%
kinase still bound, per cent of control (PAK6 (human)): 100%
kinase still bound, per cent of control (CAMK2A (human)): 89%
kinase still bound, per cent of control (RPS6KA4 KD1 (human)): 64%
kinase still bound, per cent of control (DCLK2 (human)): 100%
kinase still bound, per cent of control (INSR (human)): 100%
kinase still bound, per cent of control (ACVR1B (human)): 100%
kinase still bound, per cent of control (ZAP70 (human)): 100%
kinase still bound, per cent of control (KIT (human)): 100%
kinase still bound, per cent of control (RPS6KA2 KD2 (human)): 100%
kinase still bound, per cent of control (BTK (human)): 100%
kinase still bound, per cent of control (BRAF (human)): 50%
kinase still bound, per cent of control (PAK2 (human)): 94%
kinase still bound, per cent of control [4]: 100%
kinase still bound, per cent of control [5]: 100%
kinase still bound, per cent of control (HCK (human)): 100%
kinase still bound, per cent of control (MYLK3 (human)): 78%
kinase still bound, per cent of control (MAP3K13 (human)): 80%
kinase still bound, per cent of control (CDK19 (human)): 100%
kinase still bound, per cent of control (MAP3K1 (human)): 100%
kinase still bound, per cent of control (NEK9 (human)): 100%
kinase still bound, per cent of control (ALK (human)): 100%
kinase still bound, per cent of control (PRKCD (human)): 100%
kinase still bound, per cent of control (STK32C (human)): 97%
kinase still bound, per cent of control (TEK (human)): 100%
kinase still bound, per cent of control (DYRK1B (human)): 100%
kinase still bound, per cent of control (MYLK (human)): 59%
kinase still bound, per cent of control [6]: 100%
kinase still bound, per cent of control (MAPK12 (human)): 100%
kinase still bound, per cent of control (PDPK1 (human)): 99%
kinase still bound, per cent of control (PIM1 (human)): 94%
